According to ChEMBL document CHEMBL5050844 (2019):

Experiments:
[1] = Induction of anti-CD3/CD28 antibodies-stimulated human CD4+ T cell activation at 10 uM assessed fold increase in cell proliferation measured by flow cytometry analysis; format: functional, T cell line
[2] = Induction of anti-CD3/CD28 antibodies-stimulated human T cell activation at 1.11 uM assessed fold increase in TNF-alpha secretion measured by ELISA assay; format: functional, T cell line
[3] = Induction of anti-CD3 antibodies-stimulated human exhausted T cell activation assessed fold increase in GM-CSF secretion measured by ELISA assay; format: functional, T cell line; note: reference of the scale not given here
[4] = Induction of anti-CD3/CD28 antibodies-stimulated human CD8+ T cell activation at 1.11 uM assessed fold increase in cell proliferation measured by flow cytometry analysis; format: functional, T cell line
[5] = Induction of anti-CD3 antibodies-stimulated human CD4+ T cell activation at 10 uM assessed fold increase in CD69 expression measured by flow cytometry analysis; format: functional, T cell line; note: reference of the scale not given here
[6] = Induction of anti-CD3 antibodies-stimulated human T cell activation at 10 uM assessed fold increase in TNF-alpha secretion measured by ELISA assay; format: functional, T cell line; note: reference of the scale not given here
[7] = Induction of anti-CD3 antibodies-stimulated human T cell activation at 1.11 uM assessed fold increase in IFN-gamma secretion measured by ELISA assay; format: functional, T cell line; note: reference of the scale not given here
[8] = Induction of activation of human CD56+ CD3- NK cells co-cultured with human K562 cells in 1:1 ratio and assessed as increase in IFN-gamma secretion at 10 uM measured by ELISA assay; format: functional, Natural killer cell
B cell = assay: Induction of anti-IgM-stimulated human CD20+ B cell activation at 10 to 1000 uM assessed as increase in CD69 expression measured as mean fluorescence intensity AUC by flow cytometry analysis; format: functional, cell-based; details: dose 10-1000 µM
[9] = Induction of anti-CD3/CD28 antibodies-stimulated human T cell activation at 10 uM assessed fold increase in TNF-alpha secretion measured by ELISA assay; format: functional, T cell line
[10] = Induction of anti-CD3 antibodies-stimulated human CD4+ T cell activation at 1.11 uM assessed fold increase in CD69 expression measured by flow cytometry analysis; format: functional, T cell line; note: reference of the scale not given here
[11] = Induction of anti-CD3 antibodies-stimulated human CD8+ T cell activation at 10 uM assessed fold increase in cell proliferation measured by flow cytometry analysis; format: functional, T cell line; note: reference of the scale not given here
[12] = Induction of anti-CD3/CD28 antibodies-stimulated human CD8+ T cell activation at 10 uM assessed fold increase in CD69 expression measured by flow cytometry analysis; format: functional, T cell line
[13] = Induction of activation of human CD56+ CD3- NK cells co-cultured with human K562 cells in 1:1 ratio and assessed as increase in TNF-alpha secretion at 2.5 uM measured by ELISA assay; format: functional, Natural killer cell
[14] = Induction of anti-CD3 antibodies-stimulated human CD8+ T cell activation at 1.11 uM assessed fold increase in cell proliferation measured by flow cytometry analysis; format: functional, T cell line; note: reference of the scale not given here
[15] = Induction of anti-CD3/CD28 antibodies-stimulated human anergic T cell activation at 0.37 uM assessed fold increase in IFN-gamma secretion measured by ELISA assay; format: functional, T cell line
[16] = Induction of anti-CD3 antibodies-stimulated human exhausted T cell activation assessed fold increase in IFN-gamma secretion measured by ELISA assay; format: functional, T cell line; note: reference of the scale not given here
[17] = Induction of anti-CD3 antibodies-stimulated human exhausted CD4+ T cell activation assessed fold increase in CTLA4 expression measured by flow cytometry analysis; format: functional, T cell line; note: reference of the scale not given here
[18] = Induction of anti-CD3 antibodies-stimulated human T cell activation at 10 uM assessed fold increase in GM-CSF secretion measured by ELISA assay; format: functional, T cell line; note: reference of the scale not given here
[19] = Induction of anti-CD3/CD28 antibodies-stimulated human T cell activation at 1.11 uM assessed fold increase in IFN-gamma secretion measured by ELISA assay; format: functional, T cell line
[20] = Induction of anti-CD3/CD28 antibodies-stimulated human anergic T cell activation at 1.11 uM assessed fold increase in IFN-gamma secretion measured by ELISA assay; format: functional, T cell line
[21] = Induction of anti-CD3/CD28 antibodies-stimulated human T cell activation at 1 uM assessed fold increase in CD25 expression measured by ELISA assay; format: functional, T cell line
[22] = Induction of allogenic human T cell activation at 10 uM assessed fold increase in cell proliferation; format: functional, T cell line
[23] = Induction of anti-CD3/CD28 antibodies-stimulated human CD8+ T cell activation at 10 uM assessed fold increase in cell proliferation measured by flow cytometry analysis; format: functional, T cell line
[24] = Induction of anti-CD3 antibodies-stimulated human T cell activation at 1 uM assessed fold increase in CD25 expression measured by ELISA assay; format: functional, T cell line; note: reference of the scale not given here
[25] = Induction of activation of human CD56+ CD3- NK cells co-cultured with human K562 cells in 1:1 ratio and assessed as increase in TNF-alpha secretion at 0.625 uM measured by ELISA assay; format: functional, Natural killer cell
[26] = Induction of anti-CD3/CD28 antibodies-stimulated human T cell activation at 4 uM assessed fold increase in IL-2 secretion measured by ELISA assay; format: functional, T cell line
[27] = Induction of anti-CD3/CD28 antibodies-stimulated human T cell activation at 10 uM assessed fold increase in IFN-gamma secretion measured by ELISA assay; format: functional, T cell line
[28] = Induction of activation of human CD56+ CD3- NK cells co-cultured with human K562 cells in 1:1 ratio and assessed as increase in TNF-alpha secretion at 10 uM measured by ELISA assay; format: functional, Natural killer cell
[29] = Induction of allogenic human T cell activation at 3 uM assessed fold increase in cell proliferation; format: functional, T cell line
[30] = Induction of anti-CD3/CD28 antibodies-stimulated human T cell activation at 1.11 uM assessed fold increase in GM-CSF secretion measured by ELISA assay; format: functional, T cell line
[31] = Induction of anti-CD3/CD28 antibodies-stimulated human CD4+ T cell activation at 1.11 uM assessed fold increase in CD69 expression measured by flow cytometry analysis; format: functional, T cell line
[32] = Induction of activation of human CD56+ CD3- NK cells co-cultured with human K562 cells in 1:1 ratio and assessed as increase in IFN-gamma secretion at 2.5 uM measured by ELISA assay; format: functional, Natural killer cell
[33] = Induction of anti-CD3/CD28 antibodies-stimulated human T cell activation at 10 uM assessed fold increase in GM-CSF secretion measured by ELISA assay; format: functional, T cell line
[34] = Induction of anti-CD3 antibodies-stimulated human T cell activation at 1 uM assessed fold increase in IL-2 secretion measured by ELISA assay; format: functional, T cell line; note: reference of the scale not given here
[35] = Induction of anti-CD3 antibodies-stimulated human T cell activation at 8 uM assessed fold increase in IL-2 secretion measured by ELISA assay; format: functional, T cell line; note: reference of the scale not given here
[36] = Induction of anti-CD3/CD28 antibodies-stimulated human T cell activation at 0.3 uM assessed fold increase in IL-2 secretion measured by ELISA assay; format: functional, T cell line
[37] = Induction of anti-CD3/CD28 antibodies-stimulated human T cell activation at 4 uM assessed fold increase in CD25 expression measured by ELISA assay; format: functional, T cell line

For C[C@H](Cc1nncn1C)c1cccc(NC(=O)c2cc3cc(N4CCNCC4)ccc3cn2)c1.Cl, the “fold change (FC)” value [1] was over 4, the “fold change (FC)” value [2] was 1.51 and the “fold change (FC)” value [3] was “<=1.4”. The “fold change (FC)” value [4] was 2.01, the “fold change (FC)” value [5] was 1.401 and the “fold change (FC)” value [6] was “<=1.5”. For the same compound, the “fold change (FC)” value [7] was “<=2”, the “fold change (FC)” value [8] was 2.01 and the AUC (B cell) was 1.01. The “fold change (FC)” value [9] was 1.51, the “fold change (FC)” value [10] was 1.401 and the “fold change (FC)” value [11] was “<=2”. The “fold change (FC)” value [12] was 1.201, the “fold change (FC)” value [13] was “<=1” and the “fold change (FC)” value [14] was 2.01. For the same compound, the “fold change (FC)” value [15] was “<=2.5”, the “fold change (FC)” value [16] was over 1.61 and the “fold change (FC)” value [17] was 1.41. The “fold change (FC)” value [18] was 1.51, the “fold change (FC)” value [19] was “<=2” and the “fold change (FC)” value [20] was “<=2.5”. For the same compound, the “fold change (FC)” value [21] was 1.01, the “fold change (FC)” value [22] was “<=2” and the “fold change (FC)” value [23] was 2.01. The “fold change (FC)” value [24] was 0.801, the “fold change (FC)” value [25] was “<=1” and the “fold change (FC)” value [26] was 2.51. The “fold change (FC)” value [27] was “<=2”, the “fold change (FC)” value [28] was 1.01 and the “fold change (FC)” value [29] was “<=2”. The “fold change (FC)” value [30] was 1.51, the “fold change (FC)” value [31] was 1.201 and the “fold change (FC)” value [32] was “<=1”. For the same compound, the “fold change (FC)” value [33] was 2.01, the “fold change (FC)” value [34] was 0.101 and the “fold change (FC)” value [35] was 0.101. For the same compound, the “fold change (FC)” value [36] was “<=1” and the “fold change (FC)” value [37] was 1.01.
